Experimental data: patent publication US20040116299A1, “Phthalamide derivates, insecticides for agricultural and horticultural use and method for application thereof” (priority 2001, published 2004)

Assays:
Type in all cases: in vivo
[1] = tested on: Diamond Back Moth (Plutella xylostella); assay: Test Example 1: insecticidal effect on diamond back moth, immersion of Chinese cabbage seedling bearing eggs; conditions: seedling with eggs immersed about 30 seconds, counted six days after immersion, 25° C.; for mortality at 5 ppm / mortality at 50 ppm: Plutella xylostella, 144 h, read-out: Test Example 1 insecticidal effect (mortality criterion)
From the text: Insecticidal Effect on Diamond Back Moth (Plutella xylostella)
Adult diamond back moths were released and allowed to oviposit on a Chinese cabbage seedling. Two days after the release, the seedling having the eggs deposited thereon was immersed for about 30 seconds in a liquid chemical prepared by diluting a preparation containing each compound listed in Table 1 or 2 as an active ingredient to adjust the prescribed concentration. After air-dryness, it was allowed to stand in a room thermostatted at 25° C. Six days after the immersion, the hatched insects were counted. The mortality was calculated according to the following equation and the insecticidal effect was judged according to the criterion shown below. The test was carried out with triplicate groups of 10 insects. [formula]
The compounds described in JP-A-2001-131141 were used as comparative compounds as follows: […]

[2] = tested on: Common Cutworm (Spodoptera litura); assay: Test Example 2: insecticidal effect on common cutworm, cabbage leaf dip, second-instar larvae; conditions: cabbage leaf immersed about 30 seconds, counted eight days after inoculation, 25° C.; for mortality at 5 ppm / mortality at 50 ppm: Spodoptera litura, foliar, 192 h, read-out: Test Example 2 insecticidal effect (mortality criterion)
From the text: Insecticidal Effect on Common Cutworm (Spodoptera litura)
A piece of cabbage leaf (cultivar; Shikidori) was immersed for about 30 seconds in a liquid chemical prepared by diluting a preparation containing each compound listed in Table 1 or 2 as an active ingredient to adjust the prescribed concentration. After air-dryness, it was placed in a plastic Petri dish with a diameter of 9 cm and inoculated with second-instar larvae of common cutworm, after which the dish was closed and then allowed to stand in a room thermostatted at 25° C. Eight days after the inoculation, the dead and alive were counted. The mortality was calculated according to the following equation and the insecticidal effect was judged according to the criterion shown in Test Example 1. The test was carried out with triplicate groups of 10 insects. [formula]

[3] = tested on: diamondback moth (Plutella xylostella); assay: Test Example 3: controlling effect on diamondback moth by soil treatment for cabbage (planting-hole granules); conditions: 20 mgAI/plant granules in planting hole; for Number of parasites/3 plants After 18 days: 18 days after trans-planting; for Number of parasites/3 plants After 25 days: 25 days after trans-planting; for Number of parasites/3 plants After 32 days: 32 days after trans-planting; for Number of parasites/3 plants After 42 days: 42 days after trans-planting
Experimental: Controlling effect on diamondback moth (Plutella xylostella) by soil treatment for cabbage At the time of trans-planting cabbage plants (cultivar: YR Seitoku), planting holes were treated with granules prepared from the compound listed in Table 1 or 2 according to Formulation Example. Diamondback moths parasitic on the cabbage plants were counted on predetermined days after the trans-planting. In Table 4, mgAI/plant denotes the dosage (mg) of the active ingredient per plant.

Compound `CSCC(C)(C)NC(=O)c1c(I)cccc1C(=O)Nc1ccc(I)cc1C` [compound 30, N^2-(1,1-dimethyl-2-methylthioethyl)-3-iodo-N^1-(4-iodo-2-methylphenyl)phthalamide] has a mortality at 5 ppm ([1]; 5 ppm) of 100%, a mortality at 50 ppm ([1]; 50 ppm) of 100% and a mortality at 5 ppm [2] of 0 to 49%. For the same compound, the mortality at 50 ppm ([2]; 50 ppm) was 100%, the “Number of parasites/3 plants After 18 days” value [3] was 0 parasites/3 plants and the “Number of parasites/3 plants After 25 days” value [3] was 9 parasites/3 plants. For the same compound, the “Number of parasites/3 plants After 32 days” value [3] was 19 parasites/3 plants and the “Number of parasites/3 plants After 42 days” value [3] was 37 parasites/3 plants.
`Cc1cc(Cl)ccc1NC(=O)c1cccc(I)c1C(=O)NC(C)(C)C[S+](C)[O-]` (stereo not shown) [compound 25] was tested, and the “Number of parasites/3 plants After 18 days” value [3] was 0 parasites/3 plants, the “Number of parasites/3 plants After 25 days” value [3] was 0 parasites/3 plants and the “Number of parasites/3 plants After 32 days” value [3] was 6 parasites/3 plants. The “Number of parasites/3 plants After 42 days” value [3] was 22 parasites/3 plants.
With `Cc1cc(I)ccc1NC(=O)c1cccc(I)c1C(=O)NC(C)(C)CS(C)(=O)=O` [compound 32, N^2-(1,1-dimethyl-2-methylsulfonylethyl)-3-iodo-N^1-(4-iodo-2-methylphenyl)phthalamide] the mortality at 5 ppm ([1]; 5 ppm) was 100%, the mortality at 50 ppm ([1]; 50 ppm) was 100% and the mortality at 5 ppm [2] was 0 to 49%. It also gave a mortality at 50 ppm ([2]; 50 ppm) of 100%.
With `CC(C)(CS(C)(=O)=O)NC(=O)c1c(I)cccc1C(=O)Nc1ccc(Cl)cc1Cl` [compound 101] the “Test Example 1 insecticidal effect (mortality criterion)” value (shortened to “Test Example 1 insecticidal effect”) ([1]; 5 ppm) was “A (Mortality 100%)” and the “Test Example 1 insecticidal effect” value ([1]; 50 ppm) was “A (Mortality 100%)”.
Work on `CCSCC(C)NC(=O)c1cccc(I)c1C(=O)Nc1ccc(Cl)cc1C` (stereo not shown) [B, N^2-(4-chloro-2-methylphenyl) -3-iodo-N^1-(2-ethylthio-1-methylethyl)phthalamide, reference compound] yielded a mortality at 5 ppm ([1]; 5 ppm) of 0 to 49%, a mortality at 50 ppm ([1]; 50 ppm) of 100% and a mortality at 5 ppm [2] of 0 to 49%. For the same compound, the mortality at 50 ppm ([2]; 50 ppm) was 0 to 49%.
In the case of `CSCC(C)(C)NC(=O)c1c(I)cccc1C(=O)Nc1ccc(Cl)c(C(F)(F)F)c1Cl` [compound 142], the “Test Example 1 insecticidal effect” value ([1]; 50 ppm) is reported as “A (Mortality 100%)” and the “Test Example 2 insecticidal effect (mortality criterion)” value ([2]; 50 ppm) is reported as “A (Mortality 100%)”.
`Cc1cc(Br)ccc1NC(=O)c1cccc(I)c1C(=O)NC(C)(C)C[S+](C)[O-]` (stereo not shown) [compound 28] was tested, and the “Number of parasites/3 plants After 18 days” value [3] was 0 parasites/3 plants, the “Number of parasites/3 plants After 25 days” value [3] was 7 parasites/3 plants and the “Number of parasites/3 plants After 32 days” value [3] was 23 parasites/3 plants. For the same compound, the “Number of parasites/3 plants After 42 days” value [3] was 59 parasites/3 plants.
In the case of `Cc1cc(I)ccc1NC(=O)c1cccc(I)c1C(=O)NC(C)(C)C[S+](C)[O-]` (stereo not shown) [compound 31, N^2-(1,1-dimethyl-2-methylsulfinylethyl)-3-iodo-N^1-(4-iodo-2-methylphenyl)phthalamide], the mortality at 5 ppm ([1]; 5 ppm) is reported as 100%, the mortality at 50 ppm ([1]; 50 ppm) is reported as 100% and the mortality at 5 ppm [2] is reported as 0 to 49%. It also gave a mortality at 50 ppm ([2]; 50 ppm) of 100%.
For `CSCC(C)NC(=O)c1cccc(I)c1C(=O)Nc1ccc(Cl)cc1C` (stereo not shown) [A, N^2-(4-chloro-2-methylphenyl)-3-iodo-N^1-(1-methyl-2-methylthioethyl)phthalamide, reference compound], the mortality at 5 ppm ([1]; 5 ppm) was 0 to 49%, the mortality at 50 ppm ([1]; 50 ppm) was 100% and the mortality at 5 ppm [2] was 0 to 49%. The mortality at 50 ppm ([2]; 50 ppm) was 0 to 49%, the “Number of parasites/3 plants After 18 days” value [3] was 8 parasites/3 plants and the “Number of parasites/3 plants After 25 days” value [3] was 75 parasites/3 plants. For the same compound, the “Number of parasites/3 plants After 32 days” value [3] was 143 parasites/3 plants and the “Number of parasites/3 plants After 42 days” value [3] was 146 parasites/3 plants.
